Experimental data from paper PMC6591251, “Discovery of potent necroptosis inhibitors targeting RIPK1 kinase activity for the treatment of inflammatory disorder and cancer metastasis” (Cell Death & Disease, 2019).
Where “and” joins values, the source holds several entries; their conditions need not be identical. Equal values may be shown once.

How the values were obtained:
[1] = system: phosphorylation of RIPK1, RIPK3, and MLKL in HT-29 cells; test: Western blot of necroptotic signaling after T/S/Z; type: cell-based, human; conditions: T/S/Z 8 h
Source text: In addition to TNF-induced necroptosis, it is known that TLR3 or TLR4 activation can also trigger necroptosis. We further evaluated the effects of PK6 and PK68 on TLR3- and TLR4-mediated necroptosis induced by poly(I:C)/z-VAD and LPS/z-VAD, respectively. […] To investigate the molecular mechanism of PK series-mediated necroptosis inhibition, we examined the effects of these compounds on the major steps of necroptotic signaling, including activation of RIPK1, RIPK3, and MLKL. […] It has been shown previously that RIPK3 activation leads to the formation of RIPK3 puncta during necroptosis.
Fig. 3 PK6 and PK68 block cellular activation of RIPK1, RIPK3, and MLKL upon necroptotic stimuli. a, b Bone marrow-derived macrophages from C57BL/6 mice or rat were pretreated with DMSO, PK6(10 μM), or PK68 (100 nM) for 1 h and subsequently treated with indicated stimuli for 24–30 h. Cell viability was determined by measuring ATP levels. L, LPS (20 ng/ml); P, poly(I:C) (50 μg/ml); S (100 nM); Z (10 μM). Data are represented as the mean ± standard deviation of triplicates. c HT-29 cells were treated with the indicated compound for 1 h prior to the treatment of T (40 ng/ml), S (100 nM), and Z (20 μM) for additional 8 h. […] The distribution of RIPK3 was detected by immunofluorescence. *P < 0.05. **P < 0.01. ***P < 0.001 […]

human RIPK1 = target: T1, human RIPK1 (Homo sapiens, UniProt Q13546); test: In vitro kinase activity assay (ADP-Glo); type: biochemical; conditions: recombinant RIPK1; ATP 50 μM
T1 construct: purchased SignalChem
Method: (§1) Having shown that PK6 and PK68 can inhibit activation of both RIPK1 and RIPK3 during TNF-mediated necroptosis, we sought to determine if PK6 and PK68 can directly target RIPK1 or and RIPK3 by performing in vitro kinase assays. Both PK6 and PK68 were able to block the kinase activities of both human RIPK1 and mouse RIPK1 in vitro (Fig. 4a and Supplementary Fig. 19).
(§2) Recombinant proteins were incubated with PK6 and PK68 as indicated. […] NIH3T3-RIPK3 cells were pretreated with indicated compounds for 1 h and subsequently treated with T (40 ng/ml)/S (100 nM)/Z (20 μM) or AP20187 (100 nM) for 24 h. Cell viability was determined by measuring ATP levels. e PK6 and PK68 have no effect on MLKL dimerization-induced cell death in HeLa-MLKL (1–190) cells that stably express MLKL (1–190aa) fused to DmrB. HeLa-MLKL (1–190) cells were pretreated with indicated compounds for 1 h and subsequently treated with AP20187 (100 nM) for 24 h. Cell viability was determined by measuring ATP levels.
(§3) The recombinant RIPK1 or RIPK3 protein was incubated with DMSO or the indicated compound for 15 min in the assay buffer (25 mM HEPES pH 7.2, 20 mM MgCl2, 12.5 mM MnCl2, 12.5 mM β-glycerol phosphate, 5 mM EGTA, 2 mM EDTA, and 2 mM DTT). […] The luminescence was measured to calculate the kinase activity after the addition of the ADP-Glo Kinase Assay kit following the manufacturer’s instructions (Promega).

mouse RIPK1 = target: T2, mouse RIPK1 (Mus musculus, UniProt Q60855); test: In vitro kinase activity assay (ADP-Glo); type: biochemical; conditions: recombinant mouse RIPK1
T2 construct: purchased SignalChem
Method: as §1
The recombinant RIPK1 or RIPK3 protein was incubated with DMSO or the indicated compound for 15 min in the assay buffer (25 mM HEPES pH 7.2, 20 mM MgCl2, 12.5 mM MnCl2, 12.5 mM β-glycerol phosphate, 5 mM EGTA, 2 mM EDTA, and 2 mM DTT). Then, ATP (50 μM) and the substrate MBP (20 μM) were added to the reaction at room temperature for 120 min. The luminescence was measured to calculate the kinase activity after the addition of the ADP-Glo Kinase Assay kit following the manufacturer’s instructions (Promega).
Supplementary Figure 19. Both PK6 and PK68 were able to block the kinase activity of mouse RIPK1 in vitro.
In vitro kinase activity assays using recombinant mouse RIPK1 were performed. Recombinant proteins were incubated with PK6(A) and PK68(B) as indicated. Data represent mean value ±standard deviation.

RIPK3 = target: T3, RIPK3 (Homo sapiens, UniProt Q9Y572); test: In vitro kinase activity assay (ADP-Glo); type: biochemical; conditions: even at a 1000 nM concentration
T3 construct: purchased Reaction Biology Corporation
Method: as §1
Recombinant proteins were incubated with PK6 and PK68 as indicated. […] NIH3T3-RIPK3 cells were pretreated with indicated compounds for 1 h and subsequently treated with T (40 ng/ml)/S (100 nM)/Z (20 μM) or AP20187 (100 nM) for 24 h. Cell viability was determined by measuring ATP levels. e PK6 and PK68 have no effect on MLKL dimerization-induced cell death in HeLa-MLKL (1–190) cells that stably express MLKL (1–190aa) fused to DmrB. HeLa-MLKL (1–190) cells were pretreated with indicated compounds for 1 h and subsequently treated with AP20187 (100 nM) for 24 h. Cell viability was determined by measuring ATP levels. […]
as §3

NIH3T3-RIPK3 cells [2] = test: RIPK3 dimerization-induced necroptosis (AP20187); type: cell-based, mouse; conditions: AP20187 100 nM, 24 h
Method: as §2
Further, we evaluated the selectivity of PK68 against a panel of 369 kinases provided by Reaction Biology (at 1000 nM). […] In addition, we followed on some of the active “hits” from the kinome scan. PK68 was tested against TNIK and TRKA by a reputable CRO company. […] RIPK1 is known to mediate NF-κB activation independently of its kinase activity. […] It has been shown that homodimerization of RIPK3 or MLKL induced by the dimerizer leads to necroptosis bypassing the upstream signals[10],[37]. […] This dimerized RIPK3-induced necroptosis was blocked by RIPK3 inhibitor GSK873 but was not blocked by the RIPK1 inhibitor necrostatin-1. […] (Fig. 4e).
(§4) The cell viability was analyzed by using the CellTiter-Glo Luminescent Cell Viability Assay kit following the manufacturer’s instructions (Promega). Luminescence was measured with SpectraMax i3x (Molecular Devices).

NIH3T3-RIPK3 cells [3] = test: TNF-induced necroptosis (T/S/Z); type: cell-based, mouse; conditions: T/S/Z 24 h
Method: as §2, §4

T1 sequence (Q13546 whole entry): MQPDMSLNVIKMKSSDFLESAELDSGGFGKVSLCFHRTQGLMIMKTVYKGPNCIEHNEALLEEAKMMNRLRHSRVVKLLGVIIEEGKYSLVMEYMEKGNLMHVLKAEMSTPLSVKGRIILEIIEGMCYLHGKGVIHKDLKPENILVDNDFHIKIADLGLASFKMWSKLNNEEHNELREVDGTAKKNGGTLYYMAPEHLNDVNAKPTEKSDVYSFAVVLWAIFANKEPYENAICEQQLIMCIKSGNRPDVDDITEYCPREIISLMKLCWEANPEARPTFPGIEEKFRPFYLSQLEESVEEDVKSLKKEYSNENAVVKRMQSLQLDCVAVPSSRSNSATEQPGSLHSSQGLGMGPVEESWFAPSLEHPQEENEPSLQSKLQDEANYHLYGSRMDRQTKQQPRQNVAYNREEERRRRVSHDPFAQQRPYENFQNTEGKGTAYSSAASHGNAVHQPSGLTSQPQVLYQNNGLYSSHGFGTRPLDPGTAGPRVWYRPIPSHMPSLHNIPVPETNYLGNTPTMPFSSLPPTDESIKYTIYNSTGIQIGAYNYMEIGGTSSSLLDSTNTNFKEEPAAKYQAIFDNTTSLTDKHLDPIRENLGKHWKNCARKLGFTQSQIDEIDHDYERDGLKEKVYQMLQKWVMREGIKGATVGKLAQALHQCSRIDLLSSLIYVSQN
T3 sequence (Q9Y572 whole entry): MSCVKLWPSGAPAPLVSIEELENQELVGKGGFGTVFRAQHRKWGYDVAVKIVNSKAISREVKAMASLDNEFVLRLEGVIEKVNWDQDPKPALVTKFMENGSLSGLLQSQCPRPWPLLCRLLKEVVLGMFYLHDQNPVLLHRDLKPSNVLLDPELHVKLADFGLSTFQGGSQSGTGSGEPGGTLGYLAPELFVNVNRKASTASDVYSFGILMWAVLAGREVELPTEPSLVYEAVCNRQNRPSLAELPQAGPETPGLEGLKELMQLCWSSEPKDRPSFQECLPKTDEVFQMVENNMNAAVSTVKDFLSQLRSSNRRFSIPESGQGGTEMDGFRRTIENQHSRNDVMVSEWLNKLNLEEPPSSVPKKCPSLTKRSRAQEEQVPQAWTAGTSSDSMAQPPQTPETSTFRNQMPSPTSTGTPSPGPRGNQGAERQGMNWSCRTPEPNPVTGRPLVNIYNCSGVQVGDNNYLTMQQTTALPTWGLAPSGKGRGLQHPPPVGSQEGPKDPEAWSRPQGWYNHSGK
T2 sequence (Q60855 whole entry): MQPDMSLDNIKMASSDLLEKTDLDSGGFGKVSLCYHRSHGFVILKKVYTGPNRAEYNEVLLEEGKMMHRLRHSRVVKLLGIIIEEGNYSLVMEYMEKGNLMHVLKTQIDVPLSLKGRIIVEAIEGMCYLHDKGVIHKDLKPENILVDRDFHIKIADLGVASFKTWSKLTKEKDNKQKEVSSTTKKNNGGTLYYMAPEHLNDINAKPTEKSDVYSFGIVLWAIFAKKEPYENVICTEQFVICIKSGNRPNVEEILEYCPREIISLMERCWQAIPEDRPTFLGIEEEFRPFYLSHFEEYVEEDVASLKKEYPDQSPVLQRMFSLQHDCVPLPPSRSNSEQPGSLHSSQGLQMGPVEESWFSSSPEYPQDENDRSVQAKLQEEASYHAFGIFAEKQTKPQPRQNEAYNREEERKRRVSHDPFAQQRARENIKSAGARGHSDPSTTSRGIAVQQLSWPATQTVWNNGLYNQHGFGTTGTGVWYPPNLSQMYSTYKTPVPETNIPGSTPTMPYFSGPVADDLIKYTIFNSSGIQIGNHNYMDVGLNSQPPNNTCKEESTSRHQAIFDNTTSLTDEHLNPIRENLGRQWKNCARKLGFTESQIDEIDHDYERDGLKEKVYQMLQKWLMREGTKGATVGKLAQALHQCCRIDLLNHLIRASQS

| Compound | phosphorylation of RIPK1, RIPK3, and MLKL [1] | IC50 (human RIPK1) | kinase activity of mouse RIPK1 in vitro (mouse RIPK1) | RIPK3 kinase activity (RIPK3) | RIPK3 dimerization-induced necroptosis (NIH3T3-RIPK3 cells [2]) | TNF-induced necroptosis in NIH3T3-RIPK3 cells (NIH3T3-RIPK3 cells [3]) |
| --- | --- | --- | --- | --- | --- | --- |
| CC(=O)Nc1nc2ccc(-c3cnc(Cl)c(NC(=O)Cc4ccccc4)c3)cc2s1 [PK6, N-(5-(2-acetamidobenzo[d]thiazol-6-yl)-2-chloropyridin-3-yl)-2-phenylacetamide] | completely abolished | 200 ± 130 nM | able to block | neither PK6 nor PK68 affected RIPK3 kinase activity | neither PK6 nor PK68 blocked | inhibit |
| CC(=O)Nc1nc2ccc(-c3cnc(C)c(NC(=O)OC4CCCCC4)c3)cc2s1 [PK68, cyclohexyl (5-(2-acetamidobenzo[d]thiazol-6-yl)-2-methylpyridin-3-yl)carbamate] | completely abolished | ~90 nM and 90 nM | able to block | neither PK6 nor PK68 affected RIPK3 kinase activity | neither PK6 nor PK68 blocked | inhibit |
